Source: patent US20180118707A1, “BETA-NAPHTHOISOFLAVONES, COMPOSITIONS CONTAINING, AND USES OF, SAME” (Thesan Pharmaceuticals, Inc., priority 2015, published 2018)

Experiments:
CYP1A1 mRNA = assay: Induction of CYP1A1 mRNA in HepG2 cells (RT-PCR); format: cell-based, human; conditions: 24 h incubation, 10 uM, normalized to 18S rRNA
Protocol: HepG2 cells (American Type Culture Collection (ATCC), Manassas, Va.) were cultured using Eagle's minimal essential medium (ATCC), supplemented with 10% fetal calf serum (Invitrogen Life Technologies). The cells were cultured continuously until used in experiments (similar to Examples 2 and 3). Celts were plated at a seeding density of 3.8×10^5 cells per well on 6-well plates (Corning Costar, N.Y., U.S.A.). Cells were allowed to attach for 24 h in a 37° C. humidified incubator with a 5% CO2 atmosphere. Media was replaced with that containing test agents or vehicle (0.1% dimethylsuiphoxide) and cells incubated for a further 24 h. Following the 24 h incubation with test agents, media was removed and RNA prepared using the Purelink RNA mini kit (ThermoFischer, Carlsbad, Calif.). Nucleic acid concentration was determined using a Nanodrop™ spectrophotometer (ThermoScientific) by measuring the OD at 260 nm and RNA purity was evaluated using the OD 260/280 nm ratio, 1 μg RNA was reverse transcribed using SuperScript®VILO™ (ThermoFischer) with cDNA synthesis performed using the following parameters: 10min at 25° C., 2 h at 42° C., 5min at 85° C. (deactivation) followed by a completion temperature de C. […] Results were analyzed by calculating the fold change of CYP1A1 mRNA levels normalized to 18S rRNA (ΔΔCt) in compound treated cells or tissues compared to vehicle levels.

CYP1A1 enzyme = assay: Induction of CYP1A1 enzyme in HepG2 cells, EROD assay; format: cell-based, human; conditions: 10 uM, 24 h
Protocol: (§1) The formation of resorufin is quantified by fluorometry with a fluorescence plate reader. Fluorescence is determined at λex 570 nm and λem 590 nm. The amount of resorufin is calculated from a standard curve generated using 0 to 1 μM resorufin in water at ½ log dilutions. The remaining (i.e. all cells present at the beginning of analysis, since only supernatant is taken to assay EROD) live cells are subsequently utilized for the MIT cytotoxicity assay. MTT is made up in serum-free medium at 5 mg/ml. then added to the cells giving a final concentration of 10% (0.5 mg/ml MTT final) then incubated for 2 h. The medium is carefully removed, then MTT formazan is solubilized by adding 200 μl of DMSO and subsequently mixed on a plate shaker. The absorbance is measured spectra photometrically at 550 nm and background absorbance at 690 nm is subtracted. A standard curve generated using MIT formazan (dissolved in DMSO) from O—200 μM (0, 2, 5, 10, 20, 50, 100, 200 μM) is used to calculate the final experimental values which are then expressed as (wnol resarufin/mol MTT formazan) or as fold-Induction compared to solvent.

CYP1A1 = assay: as above; format: cell-based, human; conditions: human, probe 7-ethoxyresorufin (8 μM)
Protocol: as §1

human sebocyte cells = assay: MTT cytotoxicity assay in human cultured sebocytes after EROD; format: cell-based
Protocol: The essential methodology for culture and handling of human cultured sebocytes has been described in earlier examples for HEPG2 and NHK cells. Cells are seeded at between 1×10^4 and 2.5×10^4 cells/well in a 96-well microtitre plate. […] The formation of resorufin is quantified by fluorometry with a fluorescence plate reader. Fluorescence is determined at λex 570 nm and λem 590 nm. The amount of resorufin is calculated from a standard curve generated using 0 to 1 μM resorufin in water at ½ log dilutions. The remaining (i.e. all cells present at the beginning of analysis, since only supernatant is taken to assay EROD) live cells are subsequently utilized for the MU cytotoxicity assay. MU is made up in serum-free medium at 5 mg/mi. then added to the cells giving a final concentration of 10% (0.5 mg/ml MIT final) then incubated for 2 h. The medium is carefully removed, then MIT formazan is solubilized by adding 200 μl of DMSO and subsequently mixed on a plate shaker. The absorbance is measured spectrophotometrically at 550 nm and background absorbance at […] is subtracted. A standard curve generated using MTT formazan (dissolved in DMSO) from O—200 μM (0, 2, 5, 10, 20, 50, 100, 200 μM) is used to calculate the final experimental values which are then expressed as (μmol resorufin/mol MTT formazan) or as fold-induction compared to solvent.

SMILES: O=c1cc(-c2ccccc2)oc2ccc3ccccc3c12 [D, 3-Phenyl-1H-benzo[f]chromen-1-one, reference compound]
- CYP1A1 mRNA fold change from vehicle (CYP1A1 mRNA): 596 fold
- % change vs. TCDD EROD (HepG2) at 10 uM (CYP1A1 enzyme): 19%
- EC50 at 24 h (CYP1A1): 1000 nM
- Toxicity threshold (human sebocyte cells): 30 µM
